The source of these data is EP0019524A1, “Process for preparing flavilium derivatives, products obtained by the processus and their therapeutical application” (SOCIETE DE RECHERCHES INDUSTRIELLES SORI, priority 1979, dated 1980).

Data set [1] concerns hématies. Description: Erythrocyte deformability: filtration rate of erythrocyte suspension and plasma (Schmid-Schönbein technique) in hyperlipidemic monkeys. The class given is in vivo, singe. The settings on record: monkeys on hyperlipidic diet, 20 mg/kg per os per day for 8 months, mean, 5 µ filter, 50 mm water pressure. The source says:
La déformabilité des hématies a été mesurée selon la technique de SCHMID-SCHONBEIN et al., Blut (1973), 26, 369-379, par filtration (diamètre des pores du filtre : 5µ) sous une pression constante de 50 mm d'eau, d'une suspension d'hématies amenée à un hématocrite de 10% par dilution dans un plasma autologue. La phase de suspension est également filtrée selon la même technique. On peut apprécier ainsi l'intensité de certaines maladies car le taux de filtration de la suspension d'hématies et/ou de la phase de plasma est modifié par les maladies du métabolisme telles que le diabète et l'hyperlipidémie.
Le taux de filtration des hématies a été déterminé in vivo chez le singe rendu hyperlipidémique après absorption d'un régime gras. Les composés à tester ont été administrés per os à la dose quotidienne de 20 mg/kg pendant 8 mois à des lots de singes : un lot recevant un régime normal, un lot recevant un régime gras, les autres lots recevant le régime gras et un des composés à tester. Les résultats donnés dans le tableau ci-après sont exprimés sous forme d'une moyenne et représentent la vitesse de filtration des hématies ou du plasma en µl/s. La signification statistique des résultats est très bonne (p <( 0,001).

Data set [2] can be described thus: Acute toxicity (LD50), method of Litchfield et al. As to conditions: in vivo, ip; mouse, intraperitoneal route; read-out: DL-50 I.P. souris. The method, then:
La toxicité a été déterminée chez la souris par voie intrapéritonéale selon la méthode de J.T. LITCHFIELD et al., J. Pharmacol. Exptl. Therap. (1949), 96, 99. La DL-50 I.P. souris des produits III et IV est de 750 mg/kg. Les produits de formule (I) ne sont donc pas toxiques.

The test system of data set [3] is patients. The data set is described as follows: Clinical trial in hyperlipidemic and hypertensive patients. The class given is in vivo. The settings on record: 21 days. The method, then: On a résumé enfin les résultats des essais cliniques qui ont été entrepris avec le composé III pendant 21 jours sur 65 patients (30 patients étant hyperlipidiques et les 35 autres patients souffrant d'hypertension artérielle), un lot de patients recevant 3 comprimés ou 3 glossettes par jour renfermant chacun 10 mg de composé III, un autre lot recevant une injection quotidienne de 10 mg de composé III. La tolérance de ce produit s'est révélée excellente puisque la condition de 51 patients (c'est-à-dire 78,4%) a été considérablement améliorée.

Setting [4] is: of 65 patients (30 hyperlipidemic, 35 arterial hypertension), 3 x 10 mg oral/sublingual or 10 mg injection per day.

With `C[C@@H]1O[C@@H](OC[C@H]2O[C@@H](Oc3cc4c(O)cc(O)cc4[o+]c3-c3ccc(O)c(O)c3)[C@H](O)[C@@H](O)[C@@H]2O)[C@H](O)[C@H](O)[C@H]1O` [composé III, chlorurede 3-[6-0-(6-désoxy-α-L-mannopyranosyl)-β-D-glucopy-ranosyloxy]-3',4',5,7-tétrahydroxy-flavylium], the “Vitesse de filtration du plasma” value in data set [1] is on record as 55,92 ± 4,78 µl/s. Also, the “Vitesse de filtration des hématies” value in data set [1] (hematocrit 10%) is 43,97 ± 2,30 µl/s. In data set [2], the LD50 was 750 mg/kg. In addition, the tolérance result in data set [3] (65 patients, 3 tablets or sublingual tablets of 10 mg per day, or one daily injection of 10 mg) is on record as “excellente”. In addition, in data set [3] (setting [4]), the “patients dont la condition a été considérablement améliorée” value is recorded as 78,4% and the “patients dont la condition a été considérablement améliorée (nombre)” value is recorded as 51 patients.

Consider `COc1cc(OC)c2cc(O[C@@H]3O[C@H](CO[C@@H]4O[C@@H](C)[C@H](O)[C@@H](O)[C@H]4O)[C@@H](O)[C@H](O)[C@H]3O)c(-c3ccc(OC)c(OC)c3)[o+]c2c1` [composé IV, chlorurede 3-[6-0-(6-désoxy-α-L-mannopyranosyl)-β-D-glucopyranosyloxy]-3',4', 5,7-tétraméthoxy-flavylium], for which the LD50 in data set [2] was determined as 750 mg/kg.
